# Laboratory results from patent US7265152B2 (ViroPharma Incorporated, priority 2002, dated 2007).
# Where two headings read alike, the source gives them in different places.
# Tests used:
# [1] = system: HCV replicon (BB7 sequence) in Huh-7-Clone A cells; test: HCV replicon assay: ELISA of NS5A protein in replicon-containing cells (Inhibition of Viral RNA Replication); assay type: cell-based; settings: read-out: Replicon
# Procedure, shortened: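 EC50 taken from an 8-point serially diluted dose curve, with NS5A level as read-out: fixed cells probed with primary monoclonal and HRP-conjugated secondary, TMB developed 30 min, OD 650 nm. Compound exposure 72 h in Huh-7-Clone A replicon cells (BB7 sequence).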
# HCV NS5B = target: T1, HCV NS5B (Hepatitis C virus genotype 1b, UniProt Q9WMX2); test: Inhibition of viral RNA-dependent RNA polymerase (RdRp), in vitro biochemical assay; set-up: species or system HCV genotype 1b virus (BB7); settings: read-out: HCV pol-BB7 IC50
# T1 construct: fusion protein, of which the carboxyl terminal 21 amino acids were removed to enhance its solubility; His tag (GSHHHHHH); made in house; host or cells: E. coli
# Procedure, shortened: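 IC50 values are the concentrations that halve in vitro RNA synthesis by HCV NS5B polymerase. The enzyme was a C-terminally truncated (Δ21), His-tagged genotype 1b (BB7 consensus) protein purified from E. coli.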
# [2] = Hepatitis C virus, HCV replicon assay, ranges of EC50
# [3] = HCV NS5B RdRp, BB7, class symbols A-D
# [4] = Hepatitis C virus, Huh-7-Clone A, NS5A ELISA, 72-hour incubation, ranges of EC50
# [5] = purified His-tagged NS5B (BB7), carboxyl terminal 21 amino acids removed
# [6] = HCV NS5B RdRp, BB7, activity class
# [7] = Hepatitis C virus, ranges of EC50 in HCV replicon assay
# [8] = Hepatitis C virus, HCV replicon, range of EC50
# [9] = HCV NS5B RdRp, BB7, reported as range class
# [10] = HCV NS5B polymerase, BB7 (genotype 1b), values given as range classes A-D
compound,measurement,setting,value
"CCN(c1cc2oc(-c3ccc(F)cc3)c(C(=O)NC)c2cc1OC(C)C)S(C)(=O)=O [Example 255, 6-(Ethyl-methanesulfonyl-amino)-2-(4-fluoro-phenyl)-5-isopropoxy-benzofuran-3-carboxylic acid methylamide]",EC50,[1]; [2],< 1 µM
same,IC50,HCV NS5B; [3],≤ 0.5 µM
"CNC(=O)c1c(-c2ccc(O)cc2)oc2ccc(OC(C)C)cc12 [Example 5, 2-(4-Hydroxy-phenyl)-5-isopropoxy-benzofuran-3-carboxylic acid methylamide]",EC50,[1]; [4],< 10 µM
same,IC50,HCV NS5B; [5],0.5 to 5 µM
"COc1cc2c(C(=O)NC3CC3)c(-c3ccc(F)cc3)oc2cc1-c1c(C)noc1C [Example 380, 6-(3,5-Dimethyl-isoxazol-4-yl)-2-(4-fluoro-phenyl)-5-methoxy-benzofuran-3-carboxylic acid cyclopropylamide]",EC50,[1]; [2],< 1 µM
same,IC50,HCV NS5B; [6],≤ 0.5 µM
"CNC(=O)c1c(-c2ccc(F)cc2)oc2cc(N(CCO)S(C)(=O)=O)c(C3CC3)cc12 [Example 43, 5-Cyclopropyl-2-(4-fluoro-phenyl)-6-[(2-hydroxy-ethyl)-methanesulfonyl-amino]-benzofuran-3-carboxylic acid methylamide]",EC50,[1]; [4],< 1 µM
same,IC50,HCV NS5B; [5],≤ 0.5 µM
"CNC(=O)c1c(-c2ccc(F)cc2)oc2cc(-c3ccc(F)nc3)c(OC(C)C)cc12 [Example 161, 2-(4-Fluoro-phenyl)-6-(6-fluoro-pyridin-3-yl)-5-isopropoxy-benzofuran-3-carboxylic acid methylamide]",EC50,[1]; [7],< 10 µM
same,IC50,"HCV NS5B; HCV NS5B RdRp, BB7 genotype 1b",≤ 0.5 µM
"CNC(=O)c1c(-c2ccc(F)cc2)oc2cc(S(=O)(=O)N3CCSCC3)c(OC(C)C)cc12 [Example 175, 2-(4-Fluoro-phenyl)-5-isopropoxy-6-(thiomorpholine-4-sulfonyl)-benzofuran-3-carboxylic acid methylamide]",EC50,[1]; [8],< 1 µM
same,IC50,HCV NS5B; [9],≤ 0.5 µM
"CNC(=O)c1c(-c2ccc(F)cc2)oc2cc(OCc3nnnn3C)c(OC)cc12 [Example 211, 2-(4-Fluoro-phenyl)-5-methoxy-6-(1-methyl-1H-tetrazol-5-ylmethoxy)-benzofuran-3-carboxylic acid methylamide]",EC50,[1]; [8],< 1 µM
same,IC50,HCV NS5B; [9],≤ 0.5 µM
"CNC(=O)c1c(-c2ccc(F)c(C)c2)oc2ccc(OC)cc12 [Example 71, 2-(4-Fluoro-3-methyl-phenyl)-5-methoxy-benzofuran-3-carboxylic acid methylamide]",EC50,[1]; [4],< 30 µM
same,IC50,HCV NS5B; [5],≤ 0.5 µM
"CNC(=O)c1c(-c2ccc(F)cc2)oc2cc(-c3cnco3)c(OC(C)C)cc12 [Example 168, 2-(4-Fluoro-phenyl)-5-isopropoxy-6-oxazol-5-yl-benzofuran-3-carboxylic acid methylamide]",EC50,[1]; [7],< 10 µM
same,IC50,"HCV NS5B; HCV NS5B RdRp, BB7 genotype 1b",≤ 0.5 µM
"CNC(=O)c1c(-c2ccc(F)cc2)oc2cc(N(C)S(C)(=O)=O)c(OCc3ccc(F)c(F)c3)cc12 [Example 346, 5-(3,4-Difluoro-benzyloxy)-2-(4-fluoro-phenyl)-6-(methanesulfonyl-methyl-amino)-benzofuran-3-carboxylic acid methylamide]",EC50,[1]; [2],< 1 µM
same,IC50,HCV NS5B; [6],≤ 0.5 µM
"CNC(=O)c1c(-c2ccc(F)cc2)oc2cc(N(C)S(C)(=O)=O)c(OCC(C)O)cc12 (stereo not shown) [Example 370, 2-(4-Fluoro-phenyl)-5-(2-hydroxy-propoxy)-6-(methanesulfonyl-methyl-amino)-benzofuran-3-carboxylic acid methylamide]",EC50,[1]; [2],< 1 µM
same,IC50,HCV NS5B; [6],≤ 0.5 µM
4-Chloro-6-[ethyl-(2-methoxy-acetyl)-amino]-2-(4-fluoro-phenyl)-5-methoxy-benzofuran-3-carboxylic acid methylamide [Example 432],EC50,"[1]; HCV replicon assay, ranges of 50% effective concentration (EC50)",< 10 µM
same,IC50,HCV NS5B; [10],0.5 to 5 µM
"CNC(=O)c1c(-c2ccc(F)cc2)oc2cc(NC(C)(C)C)c(OC(C)C)cc12 [Example 148, 6-tert-Butylamino-2-(4-fluoro-phenyl)-5-isopropoxy-benzofuran-3-carboxylic acid methylamide]",EC50,[1]; [7],< 10 µM
same,IC50,"HCV NS5B; HCV NS5B RdRp, BB7 genotype 1b",≤ 0.5 µM
"CNC(=O)c1c(-c2ccc(F)cc2)oc2cc(C3(C)CNC(=O)O3)c(OC(C)C)cc12 (stereo not shown) [Example 381, 2-(4-Fluoro-phenyl)-5-isopropoxy-6-(5-methyl-2-oxo-oxazolidin-5-yl)-benzofuran-3-carboxylic acid methylamide]",EC50,[1]; [2],< 1 µM
same,IC50,HCV NS5B; [6],≤ 0.5 µM
"CNC(=O)c1c(-c2ccc(F)cc2)oc2cc(N3CCOCC3)c(OCc3ccc(C(=O)O)cc3)cc12 [Example 267, 4-[2-(4-Fluoro-phenyl)-3-methylcarbamoyl-6-morpholin-4-yl-benzofuran-5-yloxymethyl]-benzoic acid]",EC50,[1]; [2],< 10 µM
same,IC50,HCV NS5B; [3],≤ 0.5 µM
"CCc1cc2c(C(=O)NC)c(-c3ccc(F)cc3)oc2cc1N(CCF)S(C)(=O)=O [Example 337, 5-Ethyl-6-[(2-fluoro-ethyl)-methanesulfonyl-amino]-2-(4-fluoro-phenyl)-benzofuran-3-carboxylic acid methylamide]",EC50,[1]; [2],< 1 µM
same,IC50,HCV NS5B; [6],≤ 0.5 µM
"CNC(=O)c1c(-c2ccc(F)cc2)oc2cc(N(C)S(C)(=O)=O)c(OCc3cc(C)on3)cc12 [Example 396, 2-(4-Fluoro-phenyl)-6-(methanesulfonyl-methyl-amino)-5-(5-methyl-isoxazol-3-ylmethoxy)-benzofuran-3-carboxylic acid methylamide]",EC50,"[1]; Hepatitis C virus, HCV replicon assay, ranges of 50% effective concentration (EC50)",< 1 µM
same,IC50,HCV NS5B; [10],≤ 0.5 µM
"CNC(=O)c1c(-c2ccc(F)cc2)oc2cc(-c3ccn[nH]3)c(OC(C)C)cc12 [Example 230, 2-(4-Fluoro-phenyl)-5-isopropoxy-6-(2H-pyrazol-3-yl)-benzofuran-3-carboxylic acid methylamide]",EC50,[1]; [8],< 10 µM
same,IC50,HCV NS5B; [9],≤ 0.5 µM
"CNC(=O)c1c(-c2ccc(F)cc2)oc2cc(NC(C)=O)c(OC(C)C)cc12 [Example 98, 6-Acetylamino-2-(4-fluoro-phenyl)-5-isopropoxy-benzofuran-3-carboxylic acid methylamide]",EC50,[1]; [7],< 10 µM
same,IC50,"HCV NS5B; HCV NS5B RdRp, BB7 genotype 1b",≤ 0.5 µM
"CCCOc1cc2c(C(=O)NC)c(-c3ccc(F)cc3)oc2cc1NS(C)(=O)=O [Example 445, 2-(4-Fluoro-phenyl)-6-methanesulfonylamino-5-propoxy-benzofuran-3-carboxylic acid methylamide]",EC50,[1]; [2],< 1 µM
same,IC50,"HCV NS5B; HCV NS5B RdRp, BB7 (genotype 1b), reported as class symbols",≤ 0.5 µM
"CNC(=O)c1c(-c2ccc(F)cc2)oc2cc(S(=O)(=O)NC3CCC3)c(OC(C)C)cc12 [Example 150, 6-Cyclobutylsulfamoyl-2-(4-fluoro-phenyl)-5-isopropoxy-benzofuran-3-carboxylic acid methylamide]",EC50,[1]; [7],< 30 µM
same,IC50,"HCV NS5B; HCV NS5B RdRp, BB7 genotype 1b",0.5 to 5 µM
"CNC(=O)c1c(-c2ccc(F)cc2)oc2cc(N3CCOCC3)c(OCc3cscn3)cc12 [Example 35, 2-(4-Fluoro-phenyl)-6-morpholin-4-yI-5-(thiazol-4-ylmethoxy)-benzofuran-3-carboxylic acid methylamide]",EC50,[1]; [4],< 1 µM
same,IC50,HCV NS5B; [5],≤ 0.5 µM
"CNC(=O)c1c(-c2ccc(F)cc2)oc2cc(-c3cn[nH]c3)c(OC(C)C)cc12 [Example 239, 2-(4-Fluoro-phenyl)-5-isopropoxy-6-(1H-pyrazol-4-yl)-benzofuran-3-carboxylic acid methylamide]",EC50,[1]; [8],< 10 µM
same,IC50,HCV NS5B; [9],5 to 30 µM
"2-(2,4-Difluoro-phenyl)-5-isopropoxy-benzofuran-3-carboxylic acid methylamide [Example 91]",EC50,[1]; ranges of EC50 in HCV replicon assay,< 30 µM
same,IC50,"HCV NS5B; HCV NS5B RdRp, BB7 genotype 1b",≤ 0.5 µM
"CNC(=O)c1c(-c2ccc(F)cc2)oc2cc(-c3c(C)noc3C)c(OC(C)C)cc12 [Example 159, 6-(3,5-Dimethyl-isoxazol-4-yl)-2-(4-fluoro-phenyl)-5-isopropoxy-benzofuran-3-carboxylic acid methylamide]",EC50,[1]; [7],< 1 µM
same,IC50,"HCV NS5B; HCV NS5B RdRp, BB7 genotype 1b",≤ 0.5 µM
"CNC(=O)c1c(-c2ccc(F)cc2)oc2cc(-c3ccn(C)n3)c(OC(C)C)cc12 [Example 232, 2-(4-Fluoro-phenyl)-5-isopropoxy-6-(1-methyl-1H-pyrazol-3-yl)-benzofuran-3-carboxylic acid methylamide]",EC50,[1]; [8],< 10 µM
same,IC50,HCV NS5B; [9],0.5 to 5 µM
"CNC(=O)c1c(-c2ccc(F)cc2)oc2cc(C)c(OC(C)C)cc12 [Example 79, 2-(4-Fluoro-phenyl)-5-isopropoxy-6-methyl-benzofuran-3-carboxylic acid methylamide]",EC50,[1]; [4],< 10 µM
same,IC50,HCV NS5B; [5],≤ 0.5 µM
"CNC(=O)c1c(-c2ccc(F)cc2)oc2cc(N)c(OC)cc12 [Example 17, 6-Amino-2-(4-fluoro-phenyl)-5-methoxy-benzofuran-3-carboxylic acid methylamide]",EC50,[1]; [4],< 10 µM
same,IC50,HCV NS5B; [5],0.5 to 5 µM
"CNC(=O)c1c(-c2ccc(F)cc2)oc2cc(N(C)S(C)(=O)=O)c(OC(C)C)cc12 [Example 111, 2-(4-Fluoro-phenyl)-5-isopropoxy-6-(methanesulfonyl-methyl-amino)-benzofuran-3-carboxylic acid methylamide]",EC50,[1]; [7],< 1 µM
same,IC50,"HCV NS5B; HCV NS5B RdRp, BB7 genotype 1b",≤ 0.5 µM
